Measurements as given in US20220152019A1, “COMPOUNDS, COMPOSITIONS, AND METHODS FOR TREATING INFLAMMATORY OR IMMUNE-MEDIATED CONDITIONS OF SURFACE TISSUES” (Landos Biopharma, Inc., priority 2020, published 2022).

What was measured:
[1] = tested on: cervical lymph node CD3+CD4+ T cells; assay: Flow cytometry of cervical lymph node cells from the MC903-induced atopic dermatitis model; assay type: in vivo, mice; details: cervical lymph nodes, BT-11 cream 2% vs placebo cream
Protocol: MC903-induced model. MC903 (2 nM in 20 uL ethanol) was applied to the dorsal ear skin three times per week for nine applications. BT-11 topical cream (2%) (Formula F3 is Table 2) was applied to the ear daily. Mice were scored for erythema, scaling and skin thickness, summarized into a composite disease activity index score through day 19. Analysis. Cervical lymph nodes were excised and crushed by microscope slides. Red blood cells were hypotonically lysed from the resultant suspension. Samples were filtered, washed and centrifuged prior to staining. Production of IFNγ, IL-5, and IL-4 were quantified from CD3+CD4+ T cells by flow cytometry.

[2] = tested on: MC903-induced atopic dermatitis in mice; assay: MC903-induced model of atopic dermatitis, topical cream, disease activity index scoring; assay type: in vivo; details: BT-11 topical cream 2% (Formula F3) daily to the ear, vs placebo cream
Protocol: MC903-induced model. MC903 (2 nM in 20 uL ethanol) was applied to the dorsal ear skin three times per week for nine applications. BT-11 topical cream (2%) (Formula F3 is Table 2) was applied to the ear daily. Mice were scored for erythema, scaling and skin thickness, summarized into a composite disease activity index score through day 19.

[3] = tested on: splenic CD3+CD4+ T cells and CD45+ cells; assay: Flow cytometry of spleen cells from the IMQ-induced psoriasis model; assay type: in vivo, mice; details: topical BT-11 vs DMSO control
Protocol: (§1) Imiquimod (IMQ)-induced model. C57BL/6 mice were anesthetized, shaved, and briefly exposed to depilatory cream on the surface of the back. Mice were given three days to recover from the procedure prior to entry to the study. After 3 days, mice were challenged with approximately 60 mg of […] imiquimod cream daily by spreading cream over the shaved area. Treatment with BT-11 dihydrochloride salt (200 μg) in dimethyl sulfoxide (DMSO) or a DMSO control lacking BT-11 occurred by topical application to the shaved area. Mice were scored for erythema, scaling and skin thickness, summarized into a composite psoriasis area and severity index (PASI) score on a scale from 0 to 12, on day 7.
Analysis. Spleens were excised and crushed by microscope slides. Red blood cells were hypotonically lysed from the resultant suspension. Samples were filtered, washed and centrifuged prior to staining. Production of TNF, IL-17, and IL-21 were quantified from CD3+CD4+ T cells and IL6 from CD45+ by flow cytometry.

[4] = tested on: Imiquimod (IMQ)-induced psoriasis in C57BL/6 mice; assay: Imiquimod (IMQ)-induced model of psoriasis, topical treatment, PASI scoring; assay type: in vivo; details: BT-11 dihydrochloride salt 200 μg in DMSO, vs DMSO control, day 7
Protocol: as §1

## O=C(c1cccc(-c2nc3ccccc3[nH]2)n1)N1CCN(C(=O)c2cccc(-c3nc4ccccc4[nH]3)n2)CC1 [BT-11, piperazine-1,4-diylbis((6-(1H-benzo[d]imidazo-2-yl)pyridine-2-yl)methanone)]
[1]; FIG. 2B
  cervical lymph node proportion of IFNγ-positive CD4+ T cells: reduced
[1]; FIG. 2C
  cervical lymph node proportion of IL-4-positive CD4+ T cells: reduced
[1]; FIG. 2D
  cervical lymph node proportion of IL-5-positive CD4+ T cells: reduced
[2]
  disease activity subscores (erythema, scaling, skin thickness): reductions in each subscore
[2]; through day 19, FIG. 2A
  reduction of severity of disease (composite disease activity index score): approximately 70%
[3]; FIG. 1B
  splenic proportion of TNF-positive CD4+ T cells: reduced
[3]; FIG. 1C
  splenic proportion of IL-17-positive CD4+ T cells: reduced
[3]; FIG. 1D
  splenic proportion of IL-21-positive CD4+ T cells: reduced
[3]; FIG. 1E
  splenic proportion of IL-6+ cells within all CD45+ immune cells: reduction
[4]
  PASI subscores (erythema, scaling, skin thickness): reductions in each subscore
